Reference: patent US4736067A, “New dimethyl derivatives of 3-nitro-4-aminoaniline, process for their preparation and their use for dyeing keratinic fibers” (L'Oreal, priority 1983, dated 1988)

How the values were obtained:
[1] = Stability / storage of the nitro colorant in (oxidation) dyeing composition or reducing alkaline medium; assay type: physicochemical; settings: oxidation dye composition with ammonia and sodium bisulphite (Examples 26, 27)

| stability of the nitro colorant in the liquid composition [1] | Structure (SMILES) | harmlessness (Harmlessness / toxicity) |
| --- | --- | --- |
| preserved | Cc1cc(N)c([N+](=O)[O-])c(C)c1N [2,6-dimethyl-3-nitroparaphenylenediamine] | particularly harmless |
|  | CNc1c(C)cc(N)c([N+](=O)[O-])c1C [4-amino-2,6-dimethyl-3-nitro-N-methylaniline] | particularly harmless |
|  | CCN(CC)CCNc1cc([N+](=O)[O-])c(N)c(C)c1C [4-amino-5,6-dimethyl-3-nitro-N-(β-diethylaminoethyl)aniline] | particularly harmless |
|  | Cc1c(NCC(O)CO)cc([N+](=O)[O-])c(N)c1C (stereo not drawn) [4-amino-5,6-dimethyl-3-nitro-N-β,γ-dihydroxypropylaniline] | particularly harmless |
|  | Cc1c(NCCN)cc([N+](=O)[O-])c(N)c1C [4-amino-5,6-dimethyl-3-nitro-N-β-aminoethylaniline] | particularly harmless |
|  | Cc1c(NCCO)cc([N+](=O)[O-])c(N)c1C [4-amino-5,6-dimethyl-3-nitro-N-β-hydroxyethylaniline] | particularly harmless |
| stable in the liquid composition | Cc1c(N)cc([N+](=O)[O-])c(N)c1C [5,6-dimethyl-3-nitroparaphenylenediamine] | particularly harmless |
